Experimental data from article PMC5402281, “Functional, thermodynamics, structural and biological studies of in silico-identified inhibitors of Mycobacterium tuberculosis enoyl-ACP(CoA) reductase enzyme” (Scientific Reports, 2017).

Legend:
Zebrafish embryos = assay: Zebrafish embryo toxicity: survival, hatching, heart frequency; format: in vivo, Danio rerio; settings: for cardiotoxicity in the Zebrafish model: overall conclusion; for survival rate: treated from 2 hpf for 5 days, vs controls, Kaplan Meier
Experimental: Wild-type Zebrafish embryos were obtained from natural mating of adult Danio rerio bred[25] and maintained in an automated re-circulating tank system (Tecniplast, Italy). At 2 hpf (hours post fertilization) embryos were treated with different concentrations of compounds Labio_16 and Labio_17. Both compounds were diluted in DMSO for stock solutions of […] and diluted in fish water (Reverse Osmosis equilibrated with Instant Ocean Salt) to final concentrations of 1.0 μM, 3.5 μM and 7.0 μM (compound Labio_16) and 0.1 μM, 1.0 μM, 7.5 μM and 13.0 μM (compound Labio_17). Since both compounds were diluted first in DMSO, there were two control groups for each treatment, one only with fish water and the other one with the highest concentration of DMSO used in the treatments (0.035% for Labio_16 treatment and 0.065% for Labio_17 treatment).
Embryos were maintained in a 96 well plate during the 5 days of treatment inside an incubator with light-dark cycle of 14–10 hours and controlled temperature (28 °C)[25]. The solution pH and conductivity were monitored. Survival and hatching efficiency were accompanied under a stereomicroscope (OlympusSZ4045) every day, as well as developmental toxicity. Data for survival evaluation were analysed by Kaplan Meier survival test.
At 2 dpf (days post fertilization) and 5 dpf embryos heart frequency were quantified. For this, a single embryo per larvae was placed under a stereomicroscope (OlympusSZ4045) in petri-dishes with system water and their heart rate was monitored for 60 seconds by a blind experimenter (N = 10 in triplicates)[25][26]. For all procedures, temperature was kept constant at 28 °C. Data were analysed using One-way ANOVA, followed by Tukey multiple comparisons test.

MtInhA = biological target: T1, MtInhA (Mycobacterium tuberculosis, UniProt P9WGR1); assay: MtInhA enzyme inhibition by steady-state kinetics (NADH oxidation at 340 nm); format: biochemical; settings: for Ki: EI complex; for mode of inhibition with respect to NADH / mode of inhibition with respect to DD-CoA: Lineweaver-Burk plot
T1 construct: made in house
T1 sequence (P9WGR1 whole entry, looked up): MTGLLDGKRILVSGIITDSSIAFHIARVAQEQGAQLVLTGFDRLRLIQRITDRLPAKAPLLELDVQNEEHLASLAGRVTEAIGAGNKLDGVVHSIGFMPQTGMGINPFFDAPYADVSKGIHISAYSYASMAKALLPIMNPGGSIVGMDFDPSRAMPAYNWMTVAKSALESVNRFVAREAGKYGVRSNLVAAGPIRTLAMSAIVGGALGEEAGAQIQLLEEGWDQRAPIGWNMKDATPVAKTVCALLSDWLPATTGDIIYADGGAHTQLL
Experimental: In order to assess the relative potency of the compounds, inhibition studies were performed by steady-state kinetic studies using a UV-2550 UV/Visible spectrophotometer (Shimadzu^©), monitoring the NADH oxidation at 340 nm (εβ-NADH = […]), in the forward direction. Experiments were performed at 25 °C, in 100 mM Pipes pH 7.0 and were started with the addition of the 2.2 μM MtInhA to a total reaction volume of 500 μL, and monitoring the change in absorbance for 1 min. […] This is needed as IC50 and classical competitive, non-competitive and uncompetitive inhibition modes follow a rapid equilibrium process. Accordingly, MtInhA (2.2 μM) was pre-incubated with inhibitor (10 μM), aliquots were taken at different times and added to the reaction mixture containing NADH (60 μM) and DD-CoA (45 μM), and initial velocity measurements were plotted as a function of time of pre-incubation[6]. Control experiments were carried out pre-incubating MtInhA (2.2 μM) with DMSO (5%) in the absence of inhibitors, and initial velocity measured as a function of time of pre-incubation[6].
The IC50 value, which defines the concentration of inhibitor required to […], was calculated for each compound. The maximal rate for the enzyme reaction was determined in the absence of inhibitor, in the presence of fixed non-saturating concentration of NADH (60 μM ≅ Km) and DD-CoA (45 μM ≅ Km)[10][11][14]. The reaction velocity was analyzed as the percentage of inhibition as a function of inhibitor concentration and data were fitted to Eq 1.
The most promising compounds were further evaluated to assess the inhibition profile and to determine the inhibition constant (Ki). Initial rates were measured as a function of NADH concentration (10–160 μM) at fixed non-saturating DD-CoA concentration (45 μM) and fixed-varied inhibitor concentrations (0.5–120 μM). The Ki values towards NADH were calculated using the uncompetitive equation (Eq. 2) for compounds Labio_6 and Labio_16, in which [I] is the inhibitor concentration, [S] is the substrate concentration, Km and Vmax are, respectively, the Michaelis-Menten constant and maximum velocity, and Kii is the overall inhibition constant for the ESI complex. The Ki of Labio_03 was determined previously.
For compounds Labio_2, Labio_11, Labio_15 and Labio_17, the Ki values with respect to NADH were calculated using Eq. 3, which describes a non-competitive inhibition, where [I] is the inhibitor concentration, [S] is the substrate concentration, Km and Vmax are, respectively, the Michaelis-Menten constant and maximum velocity, Kii is the overall inhibition constant for the ESI complex and Kis is the overall inhibition constant for the EI complex.
Inhibition studies were also carried out in the presence of fixed non-saturating concentration of NADH (60 μM) and fixed-varied inhibitor concentrations (0.5–120 μM), when DD-CoA was the variable substrate (15–135 μM). For compounds Labio_2, Labio_6, and Labio_16, the inhibition constants for the DD-CoA substrate were determined using Eq. 3 for the non-competitive mode of inhibition. For compounds Labio_11, Labio_15 and Labio_17, the Ki for this substrate were calculated from data fitting to the equation for competitive inhibition (Eq. 4), in which [I] is the inhibitor concentration, [S] is the substrate concentration, Km and Vmax are, respectively, the Michaelis-Menten constant and maximum velocity, and Kis is the overall inhibition constant for the EI complex.

in vitro [1] = format: cell-based
Experimental: (§1) Cellular viability determination after incubation with the test compounds (Labio_16 and Labio_17) was performed essentially as described elsewhere. Briefly, Vero (and Hacat/RAW) cells were grown in DMEM media supplemented with 10% inactivated fetal bovine serum and 1% penicillin-streptomycin. The cells were maintained in culture bottles at 37 °C in humidified atmosphere with 5% CO2. Cells were seeded at 3 × 10^3 cells per well (for Hacat/RAW or Vero) in a 96-well microtiter plate and incubated for 24 hours to adhere. Medium was carefully aspirated and replaced with 90 μL DMEM, and 10 μL of stocks of the chemical compounds were added to a final concentration of 20 μM (DMSO 2.0%, v/v). After 72 h at 37 °C under 5% of CO2, the cultures were incubated with 3-(4,5-dimethylthiazol-2-yl)-2,5-diphenyltetrazolium bromide (MTT) (1 mg mL^−1) for 3 h. The formazan crystals were dried at room temperature for at least 24 h and dissolved in DMSO. The absorbance was measured at 595 nm (Spectra Max M2e, Molecular Devices, USA). The percentage of cell viability for treated groups was reported considering the control wells (DMSO 0.5%-treated) as 100% of cell viability: cell viability (%) = (absorbance of treated wells/absorbance of control wells) x 100. Data are expressed as mean of cell viability ± standard error of mean of three independent experiments performed in triplicate.

in vitro [2] = format: cell-based, murine; settings: mouse
Experimental: as §1

[3] = Ki DD-CoA Kis, varied DD-CoA 15–135 μM, fixed NADH 60 μM
[4] = varied NADH 10–160 μM, fixed DD-CoA 45 μM, ESI complex

SMILES | heart frequency at 5 dpf (Zebrafish embryos; 3.5 μM and 7.0 μM against DMSO control) | hatching efficiency (Zebrafish embryos; 1.0, 3.5, 7.0 μM vs controls) | heart frequency at 2 dpf (Zebrafish embryos; all groups, one-way ANOVA) | cardiotoxicity in the Zebrafish model (Zebrafish embryos) | survival rate (Zebrafish embryos) | IC50 (MtInhA) [µM] | Ki (MtInhA; [3]) [µM] | mode of inhibition with respect to NADH (MtInhA; fixed DD-CoA 45 μM) | mode of inhibition with respect to DD-CoA (MtInhA; fixed NADH 60 μM) | Ki DD-CoA Kii (MtInhA; varied DD-CoA 15–135 μM, fixed NADH 60 μM, ESI complex) [µM] | Ki NADH Kii (MtInhA; [4]) [µM] | viability at 72 h, 20 µM (in vitro [1]; African green monkey) [%] | viability at 72 h, 20 µM (in vitro [1]; human) [%] | viability at 72 h, 20 µM (in vitro [2]) [%] | heart frequency at 5 dpf (Zebrafish embryos; 0.1 μM and 1.0 μM against H2O control) | heart frequency at 5 dpf (Zebrafish embryos; 1.0 μM compared to DMSO control) | hatching efficiency (Zebrafish embryos; two highest concentrations, 13.0 μM and 7.5 μM) | Ki (MtInhA; Ki NADH Kis, varied NADH 10–160 μM, fixed DD-CoA 45 μM) [µM]
Cc1ccccc1OCc1nc(-c2ccc(NC(=O)c3cccs3)cc2)no1 [Labio_16] | a decrease in the heart rate | No difference | no difference | no cardiotoxicity | statistical difference | 24 ± 2 | 13 ± 1 | uncompetitive | non-competitive | 8 ± 3 | 7 ± 1 | 89 ± 12 | 104 ± 12 | 91 ± 1 | – | – | – | –
CCOC(=O)c1ccc2nc(C)cc(Nc3ccc(N4CCCCC4)cc3)c2c1 [Labio_17] | – | – | – | signs of cardiotoxicity | dose-dependent statistical difference | 20 ± 3 | 6.3 ± 0.7 | non-competitive | competitive | – | 8 ± 1 | 85 ± 8 | 84 ± 14 | 98 ± 2 | no difference | no difference | delayed hatching efficiency | 8 ± 3
